Test systems include 786-0 renal; A498 renal; HOP-62 NSCLC; NCI-H226 lung; NCI-H23 lung; SK-MEL-28 melanoma; SK-MEL-5 melanoma; SW-620 colon; U251 CNS; OVCAR-8 ovarian.
Assay in all cases: DTP human tumour cell line panel, 48 h

Each structure is given as a SMILES string.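 Exposure lasted 48 hours, with cells grown in 96-well plates and compounds tested at five concentrations. Abbreviation: GI50, concentration required for 50% inhibition of growth. At the TGI there is no net growth.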

As a reminder, the GI50 is the concentration giving 50% growth inhibition. For orientation: TGI means the concentration at which net growth stops. A high value points to lower sensitivity of the cells.

On to `CCOC(=O)c1cc2c(cc1Cl)SC(N(c1ccc(OC)cc1)S(=O)(=O)c1ccc(Cl)cc1)=NS2(=O)=O`, for which the GI50 in the experiment on 786-0 renal is 62.2 µM; in the experiment on A498 renal it was 80.8 µM; in the experiment on HOP-62 NSCLC it was > 100 µM; in the experiment with NCI-H226 lung it was 94.1 µM; in the experiment on NCI-H23 lung it was 34.6 µM; in the experiment with SK-MEL-28 melanoma, 20.8 µM. Also, the GI50 in the experiment on SK-MEL-5 melanoma is 21.2 µM; in the experiment with SW-620 colon, 27.6 µM; in the experiment on U251 CNS it was 29.1 µM. The concentration for total growth inhibition (TGI) in the experiment with 786-0 renal is > 100 µM; in the experiment on A498 renal it was > 100 µM; in the experiment on HOP-62 NSCLC, > 100 µM; in the experiment with NCI-H226 lung, > 100 µM; with NCI-H23 lung it was > 100 µM; with SK-MEL-28 melanoma, 59.9 µM. The figures for the total growth inhibition concentration (TGI) in the experiment with SK-MEL-5 melanoma, with SW-620 colon and in the experiment on U251 CNS were 54.4 µM, 72.8 µM and 88.4 µM, respectively.

With `COc1cc(C(=O)N2CCN(c3ncnc4ccccc34)CC2)c(N)cc1OCc1ccccc1`, the GI50 in the experiment on 786-0 renal is 12.9 µM; with A498 renal, 5.47 µM; in the experiment on NCI-H226 lung it was 16.1 µM; in the experiment on NCI-H23 lung, 15.6 µM; in the experiment with SK-MEL-28 melanoma it was 16.5 µM; in the experiment with SK-MEL-5 melanoma, 11.1 µM. Further, the GI50 in the experiment on SW-620 colon was 11.4 µM; with U251 CNS, 11.3 µM. The TGI in the experiment on 786-0 renal is 26.2 µM; in the experiment with A498 renal, 19.2 µM; with NCI-H226 lung, 33.3 µM; in the experiment with NCI-H23 lung, 30.4 µM; in the experiment on SK-MEL-28 melanoma, 30.5 µM; in the experiment on SK-MEL-5 melanoma it was 23 µM. Besides, the figures for the concentration for total growth inhibition (TGI) in the experiment on SW-620 colon and in the experiment with U251 CNS were 23.5 µM and 23.3 µM, respectively.

Consider `CC(C)([NH-])CO.CC(C)([NH-])CO.[Cl][Cd][Cl]`, for which the GI50 was 16.6 µM in the experiment with 786-0 renal; > 100 µM in the experiment on HOP-62 NSCLC; 7.84 µM with NCI-H226 lung; 13.9 µM in the experiment with NCI-H23 lung; 52.8 µM in the experiment with OVCAR-8 ovarian; 16.5 µM in the experiment on SK-MEL-28 melanoma. In addition, the GI50 was 4.47 µM in the experiment on SK-MEL-5 melanoma, 18.6 µM with SW-620 colon and 15.4 µM in the experiment on U251 CNS. Moreover, the TGI with 786-0 renal is 31.3 µM; with HOP-62 NSCLC, > 100 µM; with NCI-H226 lung, 20.9 µM; in the experiment with NCI-H23 lung it was 28.4 µM; in the experiment with OVCAR-8 ovarian, > 100 µM; in the experiment with SK-MEL-28 melanoma, 30.1 µM. Also, the TGI in the experiment with SW-620 colon stood at 38.9 µM; with U251 CNS, 28.8 µM.

For `NC(=O)/N=C1/CCC2C3CCCC2C13`, the TGI in the experiment on 786-0 renal, with HOP-62 NSCLC, with NCI-H226 lung, in the experiment on NCI-H23 lung, with OVCAR-8 ovarian and with SK-MEL-28 melanoma was > 100 µM throughout. Besides, the TGI in the experiment on SK-MEL-5 melanoma, in the experiment on SW-620 colon and in the experiment on U251 CNS was > 100 µM in each case.

For the compound `CN1C(=O)C2C3C=C4c5ccccc5N(c5ccccc5)C4(C2C1=O)[C@H]1C(=O)N(C)C(=O)[C@@H]31` (some centres undefined), the TGI with 786-0 renal, in the experiment with A498 renal, in the experiment on HOP-62 NSCLC, with NCI-H226 lung, in the experiment on NCI-H23 lung and in the experiment on OVCAR-8 ovarian was > 100 µM throughout. In addition, the TGI in the experiment on SK-MEL-28 melanoma, in the experiment with SW-620 colon and with U251 CNS was > 100 µM in each case.

Regarding `COC(=O)C(C(=O)OC)C1CCCC(=O)C1` (centres undefined), the TGI with 786-0 renal, in the experiment with A498 renal, in the experiment on HOP-62 NSCLC, in the experiment with NCI-H23 lung, in the experiment with OVCAR-8 ovarian and in the experiment on SK-MEL-28 melanoma was > 100 µM each time. For the same compound, the TGI with SK-MEL-5 melanoma, with SW-620 colon and in the experiment with U251 CNS was > 100 µM in each case.

Turning to `CC(=O)C1C(c2ccc(N(C)C)cc2)c2cc3c(cc2OC1(C)O)OCO3` (centres undefined), the TGI in the experiment on 786-0 renal is > 100 µM; in the experiment on HOP-62 NSCLC it was > 100 µM; in the experiment with NCI-H23 lung, > 100 µM; with OVCAR-8 ovarian, > 100 µM; with SK-MEL-28 melanoma, > 100 µM; in the experiment on SK-MEL-5 melanoma, 93 µM. In addition, the TGI with SW-620 colon and in the experiment on U251 CNS was > 100 µM in each case.

As to `COc1ccc(-c2cc(=O)c3cc(OC)ccc3[nH]2)cc1`, the TGI in the experiment on 786-0 renal, in the experiment on HOP-62 NSCLC, in the experiment with NCI-H226 lung, with NCI-H23 lung, with OVCAR-8 ovarian and in the experiment with SK-MEL-28 melanoma was > 100 µM throughout. The concentration for total growth inhibition (TGI) with SK-MEL-5 melanoma and in the experiment with SW-620 colon was > 100 µM throughout.

Regarding `COc1cc(C2SCC(=O)N2c2ncc(C)s2)cc(OC)c1OC` (centres undefined), the GI50 is > 50 µM with 786-0 renal; 0.366 µM in the experiment on A498 renal; > 50 µM with NCI-H226 lung; 30.6 µM in the experiment with NCI-H23 lung; 35.4 µM in the experiment on OVCAR-8 ovarian; > 50 µM in the experiment with SK-MEL-28 melanoma. The results for the GI50 in the experiment with SK-MEL-5 melanoma, in the experiment with SW-620 colon and with U251 CNS were 17.3 µM, 21.4 µM and 18.1 µM, respectively. In addition, the TGI with 786-0 renal, with A498 renal, in the experiment with NCI-H226 lung, with NCI-H23 lung, in the experiment with OVCAR-8 ovarian and in the experiment on SK-MEL-28 melanoma was > 50 µM in each case. In addition, the concentration for total growth inhibition (TGI) with SK-MEL-5 melanoma, with SW-620 colon and in the experiment with U251 CNS was > 50 µM throughout.

As to `Cc1cccc(C(C)(C)C)c1NC(=O)CC1C(=O)Nc2ccccc2S1(=O)=O` (centres undefined), the total growth inhibition concentration (TGI) in the experiment on 786-0 renal was found to be 21.5 µM; in the experiment with A498 renal, 28.4 µM; in the experiment on NCI-H226 lung it was 32.8 µM; in the experiment with NCI-H23 lung it was 18.9 µM; with OVCAR-8 ovarian, 22.4 µM; in the experiment on SK-MEL-28 melanoma, 30.3 µM. The total growth inhibition concentration (TGI) came out at 24.9 µM with SK-MEL-5 melanoma, 22.1 µM in the experiment on SW-620 colon and 20.2 µM in the experiment with U251 CNS.

In the case of `CCN(CC)c1ccc(C(O)C2=CC(=O)c3ccccc3C2=O)cc1` (centres undefined), the GI50 in the experiment with 786-0 renal was 1.36 µM; in the experiment on A498 renal, 2.36 µM; in the experiment with HOP-62 NSCLC it was 2.03 µM; in the experiment on NCI-H226 lung it was 1.93 µM; with NCI-H23 lung, 1.33 µM; in the experiment on SK-MEL-28 melanoma, 1.21 µM. Further, the GI50 was 0.914 µM in the experiment on SK-MEL-5 melanoma, 0.802 µM with SW-620 colon and 1.32 µM with U251 CNS. Besides, the TGI with 786-0 renal came out at 2.65 µM; in the experiment on A498 renal it was 8.35 µM; with HOP-62 NSCLC, 4.33 µM; with NCI-H226 lung, 4.63 µM; with NCI-H23 lung, 3.02 µM; in the experiment on SK-MEL-28 melanoma, 2.6 µM. In addition, the TGI is 2.88 µM in the experiment with SK-MEL-5 melanoma, > 100 µM with SW-620 colon and 7.34 µM in the experiment on U251 CNS.

The record behind these values is PubChem BioAssay (NCI).
